This test is described as follows: Binding affinity to beta amyloid protein 1-40 by fluorescence titration. On the set-up: species or system Homo sapiens.

Drawing on ChEMBL document CHEMBL1148803, “Polyfluorinated bis-styrylbenzene beta-amyloid plaque binding ligands” (J Med Chem, 2007), this text covers Kd for nine compounds.

In general, Kd refers to the concentration at which binding is half-saturated. The compound `Oc1ccc(/C=C/c2ccc(/C=C/c3ccc(O)cc3)cc2)cc1` displayed a Kd of 11 nM.
`FC(F)(F)Oc1ccc(/C=C/c2ccc(/C=C/c3ccc(OC(F)(F)F)cc3)cc2)cc1`: binding was put at a Kd of 10 nM.
With `O=C(O)c1cc(/C=C/c2c(F)c(F)c(/C=C/c3ccc(O)c(C(=O)O)c3)c(F)c2F)ccc1O`, the Kd was 9.4 nM.
The compound `FC(F)(F)c1ccc(/C=C/c2ccc(/C=C/c3ccc(C(F)(F)F)cc3)cc2)cc1` gave a Kd of 9.5 nM.
The result for `Oc1ccc(/C=C/c2c(F)c(F)c(/C=C/c3ccc(O)cc3)c(F)c2F)cc1` reads 0.03 nM.
The result for `O=C(O)c1cc(/C=C/c2ccc(/C=C/c3ccc(O)c(C(=O)O)c3)c(F)c2)ccc1O` reads 3400 nM; that for `FC(F)(F)c1cccc(/C=C/c2ccc(/C=C/c3cccc(C(F)(F)F)c3)cc2)c1`, 26 nM; that for `FC(F)(F)Oc1cccc(/C=C/c2ccc(/C=C/c3cccc(OC(F)(F)F)c3)cc2)c1`, 16 nM.
For `Cc1ccc2c(c1)sc(-c1ccc(N(C)C)cc1)[n+]2C` [THIOFLAVIN T] the value was 560 nM.
